The record followed here is US7846960B2, “FXR agonists” (Eli Lilly and Company, priority 2006, dated 2010).

One experiment addresses T1, FXR (Homo sapiens, UniProt Q96RI1).
T1 construct: Plate human hepatocarcinoma Huh7 cells grown in DMEM:F12 with 10% fetal bovine serum; endogenous in cells; host or cells: Huh7 human hepatocarcinoma cells
T1 sequence (Q96RI1 1-486): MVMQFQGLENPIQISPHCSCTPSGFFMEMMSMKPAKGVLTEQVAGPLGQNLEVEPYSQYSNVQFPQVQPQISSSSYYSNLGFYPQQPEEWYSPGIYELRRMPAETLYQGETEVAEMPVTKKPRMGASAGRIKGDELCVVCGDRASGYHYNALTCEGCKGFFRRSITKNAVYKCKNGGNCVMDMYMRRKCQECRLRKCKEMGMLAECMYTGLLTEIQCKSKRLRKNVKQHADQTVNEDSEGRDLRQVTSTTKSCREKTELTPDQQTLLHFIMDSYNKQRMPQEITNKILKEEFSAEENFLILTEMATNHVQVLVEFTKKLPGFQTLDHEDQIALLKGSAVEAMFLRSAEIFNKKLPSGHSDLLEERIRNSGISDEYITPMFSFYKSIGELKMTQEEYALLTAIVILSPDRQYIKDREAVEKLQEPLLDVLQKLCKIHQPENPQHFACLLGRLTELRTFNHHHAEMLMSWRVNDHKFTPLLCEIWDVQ
Description: bDNA Assay for SHP mRNA. Format: cell-based. The note with it: human hepatocarcinoma Huh7 cells, 24 hours treatment, SHP mRNA by bDNA; read-out: SHP gene activation EC50. The source says: FXR is a key, direct transcriptional regulator of the Small Heterodimer Partner (SHP) gene, accession number NM_021969, an atypical member of the nuclear receptor family that lacks a DNA-binding domain. SHP interacts with several conventional and orphan members of the nuclear receptor superfamily, including retinoid receptors and thyroid hormone receptor. SHP inhibits transactivation potential of superfamily members with which it interacts. […] Since FXR directly transactivates transcription of the SHP gene, the SHP branched DNA method (bDNA) quantitates FXR activation by ligands. Thus, increased expression of SHP mRNA, as determined by increase bDNA signal, signifies engagement of FXR by an agonist.
Plate human hepatocarcinoma Huh7 cells grown in DMEM:F12 with 10% fetal bovine serum and in 96 well plate at the density of 1×10^5/well. After overnight incubation, treat the cells with test compounds at various concentrations for 24 hours. […]
Incubate the lysis buffer for 15-minute at 37° C., then transfer 100 μL of the lysate from each well to the corresponding wells of the capture plate. […] Label the mRNA to be measured by addition of 100 μL QuantiGene® label probe working buffer then incubate for 60 minutes at 46° C. […] Incubate the plates at 37° C. for up to 30 minutes and then read on a luminometer (Packard Fusion Alpha, 1 second detection) to detect the luminescent signal. […]

A further experiment deals with LDLR−/− mice. Put plainly: LDLR−/− Serum Lipid Modulation. Format: in vivo. The settings on record: male LDLR−/− mice on western diet, 10 mg/kg, once daily oral gavage for seven days. The protocol: Acclimate animals for two weeks prior to study initiation. House mice individually in polycarbonate cages with filter tops, and maintain mice on a 12:12 hour light-dark cycle (lights on at 6:00 AM) at 21° C. Provide deionized water ad libitum and maintain for two weeks on ‘western diet’ TD 88137 Diet (42% fat, 0.15% cholesterol, Harlan Teklad) ad libitum. Optimize groups of five ten-week-old male LDLR−/− mice based on serum triglyceride and cholesterol levels. Dose groups once daily by oral gavage with various doses of the test compound dissolved in 5% EtOH/5% Solutol in NaCMC (1%), SLS (0.5%), antifoam (0.05%), Povidone (0.085%) for seven days. At the end of the seven-day dosing period, collect blood by cardiac puncture after asphyxiation in a CO2 chamber. […] Lipoproteins were separated by fast protein liquid chromatography, and cholesterol was quantitated with an in-line detection system. […] The colored product produced in the presence of cholesterol was monitored in the flow stream at 505 nm, and the analog voltage from the monitor was converted to a digital signal for collection and analysis. The change in voltage corresponding to change in cholesterol concentration was plotted vs. time, and the area under the curve corresponding to the elution of VLDL-C and HDL-C was calculated using Turbochrome (version 4.12F12) software from PerkinElmer (Norwalk, Conn.).

For `CCN(Cc1cccc(C(=O)O)c1)c1ccc(OCc2c(C(C)C)cnn2-c2c(Cl)cccc2Cl)cc1C` [Example 90, 3-[({4-[2-(2,6-Dichloro-phenyl)-4-isopropyl-2H-pyrazol-3-ylmethoxy]-2-methyl-phenyl}-ethyl-amino)-methyl]-benzoic acid], the EC50 – broadly, the concentration at which the effect is half-maximal – on FXR was roughly 53 nM.
For the compound `Cc1cc(CN(C)c2ccc(OCc3c(C(C)C)cnn3-c3c(Cl)cccc3Cl)cc2C)cc(C(=O)O)c1` [Example 199, 3-[({4-[2-(2,6-Dichloro-phenyl)-4-isopropyl-2H-pyrazol-3-ylmethoxy]-2-methyl-phenyl}-methyl-amino)-methyl]-5-methyl-benzoic acid], in the experiment with LDLR−/− mice, the “lowering of total cholesterol” value is recorded as 60% and the lowering of triglycerides amounted to 63%.
